The source of these data is patent publication US20120045543A1, “SHELF-LIFE EXTENSION OF SOUR DOUGH BAKED GOODS” (ERNST BÖCKER GMBH & CO. KG, priority 2009, published 2012).

One data set has as its system bacteria. Particulars: cited from earlier work.
Another data set concerns P. roqueforti. The data set can be described thus: challenge experiment on inoculated bread slices. Particulars: based on initial flour weight. In kind it is cell-based. From the text:
The inoculated bread slices, already after 2-4 days, had mycelia of P. roqueforti. In order to inhibit this mold fungus growth, a concentration of greater than 0.4% w/w propionic acid (based on the initial flour weight) was required.

The subject of a further data set is A. niger. The experiment in a line: challenge experiment, mycelial growth on bread. In kind it is cell-based.
Another data set has as its system mold fungi. The note with it: pH 5.5; depending on the fungal species; cited from earlier work.
A short description of data set [1]: loss of propionic acid during baking. The class given is physicochemical. The note with it: during baking and up to 24 h thereafter. The protocol: Using the method known to those skilled in the art, the loss of propionic acid was determined in order to find out how much propionic acid is present in the various intermediates (dough versus baked product). […] This may be explained by the fact that at the end of the baking time the bread crumb has a temperature of at most 98° C.-106° C. Propionic acid has a boiling point of 141° C. and is therefore retained in the bread crumb during the baking to completion and also after cooling, and therefore can effect the desired protection against mold.

Another data set relates to mold. The experiment in a line: storage study of bread, mold-free time. The note with it: bread with 0.4% propionic acid added.
The conditions of data set [2]: cited from earlier work.

`CCC(=O)O` [propionic acid]: the “concentration necessary for inhibition of bacteria” value with bacteria is 1.6-6%. Besides, the “concentration required to inhibit mold fungus growth” value with P. roqueforti is recorded as “greater than 0.4 % w/w”. Also, the “chemical addition needed to achieve comparable preservation results” value with A. niger (compared with co-fermentation giving 0.2% propionic and 0.2% acetic acid) is reported as “at least 0.4%”. In addition, the “concentration suppressing growth of A. niger up to the end of the study” value with A. niger (propionic acid alone, breads, challenge experiment) is on record as 0.3%. The “concentration inhibiting growth of mold fungi” value in the data set with mold fungi is 0.0125-1.25%. Also, in data set [1], the “concentration of propionic acid during baking” value was “remained roughly constant”. For the same compound, the “mold-free time longer compared with propionic acid-free bread” value with mold worked out at 14 days. Further, the “toxicity on oral intake” value in data set [2] was “not acutely toxic”.
